Experimental data published in US20040171015A1, “Cyp450-specific dna probes and primers, and biological applications thereof” (priority 2003, published 2004).
Where two headings read alike, the source gives them in different places.

Columns and labels:
[1] = system: CYP 1A2; assay: membrane (slot blot) and Northern blot assay of CYP450 mRNA in treated human hepatocytes; format: cell-based; details: 48 hours exposure, 3-MC 5 microM
Procedure: (§1) Total RNA contents are measured on a UV spectrophotometer.
(§2) The labeled cDNA thus produced are then purified.

[2] = system: CYP 1A1; assay: as above; format: cell-based; details: 48 hours exposure, 3-MC 5 microM
Procedure: as §1, §2

[3] = system: CYP450; details: known inducers used for validation; cited from earlier work
[4] = system: CYP 3A4
Procedure: (§3) 600 microliters of solution D (pH7; guanadium thiocyanate 4M; sodium citrate 25 mM; sarcosyl 0.5%; and 1.4 ml of beta-mercaptoethanol per 200 ml of solution D) have been added to each well so as to induce cell lysis. […] Are then successively added: 0.1 volume of sodium acetate (2M, pH4), 1 volume of water-saturated phenol and 0.2 volume of chloroform/isoamylalcohol (49/1, V/V). At each step, the suspension is vigorously vortexed, then left to cool on ice for 15-20 min, and centrifigated for 30 min at 4000 g and 4° C. An equal volume of isopropanol is added after removal of the aqueous phase.
(§4) RNA are then precipitated (1 hour at −20° C.) and centrifuged for 30 min at 4000 g and 4° C. The supernatant is removed and the pellets are re-suspended in 2.7 ml of solution D. 2.7 ml of isopropanol are then added to the suspension, and the RNA are again precipitated (1 hour at −20° C.) and centrifugated. The pellets are washed with 5.4 ml of 70% ethanol. After a final centrifugation and removal of the supernatant, the pellets are air-dried, and re-suspended in sterile water containing DEPC (DEPC 1/1000 in water, then sterilization). Total RNA contents are measured on a UV spectrophotometer.
(§5) 25 micrograms of total RNA have been placed into contact with oligo-dT (0.4 mM final of an equimolar composition of oligod(T) and of three oligosd(T) which have an A or a G or a C in 3′), and heated to 70° C. for 10 min, then incubated for 5 min on ice so as to allow oligo-dT hybridization on polyA RNA.
(§6) The labeled cDNA are then hybridized with the filters (48 hours at 42° C.). […] Filters have then been washed with SSC 2× buffer without SDS for 30 min at 42° C., and exposed overnight in a phosphorimager cassette.
(§7) For comparison purposes, Northern blots comprising 10 micrograms of total RNA have been incubated for hybridization with each cDNA probe separately. Quantifications are achieved by measuring band intensities per 18S quantity (as evaluated by ethidium bromide coloration).

[5] = system: CYP 14 sub-family; details: human hepatocytes, 48 hours exposure; PB 1 microM, RIF 50 microM
Procedure: RNA are then precipitated (1 hour at −20° C.) and centrifuged for 30 min at 4000 g and 4° C. The supernatant is removed and the pellets are re-suspended in 2.7 ml of solution D. 2.7 ml of isopropanol are then added to the suspension, and the RNA are again precipitated (1 hour at −20° C.) and centrifugated. The pellets are washed with 5.4 ml of 70% ethanol. After a final centrifugation and removal of the supernatant, the pellets are air-dried, and re-suspended in sterile water containing DEPC (DEPC 1/1000 in water, then sterilization). Total RNA contents are measured on a UV spectrophotometer. […]

[6] = system: CYP 3A7; details: hepatocytes
Procedure: as §3, §4, §5, §6, §7

[7] = system: CYP 3A5; details: hepatocytes
Procedure: as §3, §4, §5, §6, §7

[8] = system: CYP450 isoforms; assay: specificity assays of the cDNA probes (hybridization on filters and Northern blot); format: binding, human; details: 32P-labeled probe, filters with plasmidic DNA / 3′-NTR, Northern blot of total RNA
Excerpt: On nylon® membrane filters, the following DNA sequences were deposited:
either the sequences obtained by amplification of 50 nanograms of plasmidic DNA as described in the above example 1, followed by purification and UV spectrophotometry dosage (Power Wave X2, Biotek instruments®, St Quentin en Yvelines, France),
or plasmidic DNA (50 nanograms of linearized plasmid containing a probe inserted therein, or of empty pUC plasmid) obtained from the clones described in the above example 1 after linearization by Bam H1 (20 IU for 20 micrograms of plasmidic DNA, 1 hour at 37° C.).
The amplified sequences as well as the plasmidic ones were denatured by EDTA (final concentration of 10 mM, 10 min at 65° C.) and then by NaOH (final concentration of 0.1 M, 30 min at ambient temperature), and neutralized by SSC6× buffer, before being deposited onto a nylon® membrane (Biosupport®, Pall, Portsmouth, UK). Binding to the membrane was achieved by exposure to UV for 4 min and heating at 80° C. for 2 hours.
Three types of specificity assays have been performed:
intra-probe specificity: each cDNA probe (SEQ ID NO: 1-14) has been labeled with ^32P following Megaprime® DNA Labelling System (Amersham Pharmacia Biotech, Elancourt, France) and according to random primer polymerization. […]

Cc1ccc2cc3c(ccc4ccccc43)c3c2c1CC3 [3-methylcholanthrene]
change in CYP 1A2 (hybridization signal of reverse-transcribed total RNA) [1]: also but more weakly | change in CYP 1A1 (hybridization signal of reverse-transcribed total RNA) [2]: increase | CYP450 induced [3]: CYP 1A | change in CYP 3A4 (hybridization signal of reverse-transcribed total RNA) ([4]; human hepatocytes, 48 hours exposure, 3-MC 5 microM, PB 1 microM, RIF 50 microM): decrease

CCC1(c2ccccc2)C(=O)NC(=O)NC1=O [phenobarbital, Phenobarbital]
variation of CYP 14 sub-family (hybridization signal) [5]: no variation | CYP450 induced [3]: CYP 3A | change in CYP 3A4 (hybridization signal of reverse-transcribed total RNA) ([4]; hepatocytes): strong decrease | variation of CYP 3A7 (hybridization signal) [6]: no variation | variation of CYP 3A5 (hybridization signal) [7]: no variation

B1: SEQ ID NO: 8: DNA molecule which hybridizes to CYP 2C9 (nucleic acid, listed as Homo sapiens)
DNA: TTTGTGTATTATAATTCAAAGGCATTTCTTTTCTGCATGTTCTAAATAAAAAGCATTATTATTTGCTG
modifications: DNA, backbone and methylation of C not given here
notes: DNA molecule which hybridizes to CYP 2C9
hybridization specificity of the probe (cross-hybridization with other CYP450 isoforms, empty plasmid, other RNA from human hepatocytes, 3′-NTR) [8]: only hybridizes to its CYP 2C9 target

B2: SEQ ID NO: 9: DNA molecule which hybridizes to CYP 2C19 (nucleic acid, listed as Homo sapiens)
DNA: TTTCACTATCTGTGATGCTTCTTCTGACCCGTCATCTCACATTTTCCCTTCCCCCAAGATCTAGTGAACATTCAGCCTCCATTAAAAAAGTTTCACTGTGCAAATATATCTGCTATTCCCCATACTCTATAATAGTTACATTGAGT
hybridization specificity of the probe (cross-hybridization with other CYP450 isoforms, empty plasmid, other RNA from human hepatocytes, 3′-NTR) [8]: may hybridize in the 3′-NTR region of CYP 2C9
